Columns and labels:
[1] = tested on: human lung fibroblasts; assay: Western blot analysis of cellular and medium collagen polypeptides, lung fibroblasts; format: cell-based; details: 16 h, ML-7 40 μM, blebbistatin 100 μM, vs control cells
Experimental: ML-7, blebbistatin, cytochalasin B, puromycin, and cycloheximide were purchased from Sigma. ML-7 was used at 40 μM, blebbistatin was used at 100 μM, and cytochalasin B was used at 20 μM. Cells were incubated with the drugs for 16 h before analysis. Puromycin (200 μg/ml) and cycloheximide (100 μg/ml) were added to the cells for 2 h. Human lung fibroblasts have been described previously.16 Scleroderma fibroblasts were purchased from the European Collection of Cell Cultures (cell line BM0070) and derived from the skin of a scleroderma patient. MEFs were derived from knock-in mice in which the 5′SL of the collagen α1(I) gene has been mutated (Parsons et al., submitted). Several independent cell isolates were used throughout the study. All cells were cultured in Dulbecco's modified Eagle's medium supplemented with 10% fetal bovine serum for up to 10 passages. Plasmid constructs and adenovirus preparation. The HA-tagged LARP6 clone and the deletion mutants have been described previously.^16 Adenoviruses were constructed by recloning of the constructs into the pAdCMVTRACK vector, followed by recombination with the pAdEasy vector and amplification, as described previously.^48 Expression of each construct was verified by Western blot analysis. The viruses made express both the full-size test protein and the green fluorescent protein (GFP), which is encoded by an independent transcription unit.^48 Expression of GFP served as control for viral transduction. RT-PCR analysis Total cellular RNA was isolated using an RNA isolation kit (Sigma). RT-PCRs were performed with 100 ng of total RNA or using rTth reverse transcriptase (Boca Scientific, Boca Raton, Fla.). [^32P]dCTP was included in the PCR step to label the products, which were resolved on sequencing gels, as described previously.^8,31,49,50 When RNA from polysomal fractions was analyzed, an equal aliquot of each fraction was used. The number of cycles was adjusted to within the linear range of the reaction. The primers used for RT-PCR were as follows: h-collagen α1(I), 5′ primer […] (SEQ ID NO:3) and 3′ primer […] (SEQ ID NO:4); h-collagen α2(I), 5′ primer […] (SEQ ID NO:5) and 3′ primer […] (SEQ ID NO:6).
Protein concentration was estimated by the Bradford assay, with bovine serum albumin as standard.^51 Western blot analyses of cellular proteins were performed using 50 μg of protein. For Western blot analysis of secreted proteins, equal numbers of cells were seeded, serum-free medium was added to the cells, and incubation continued for 3 h. The medium was collected, and an aliquot was analyzed directly by Western blot analysis. Use of serum free medium in collecting secreted proteins is essential because fetal calf serum contains substantial amounts of collagen and fibronectin.^15,31 For immunostaining, cells were seeded onto glass coverslips. After treatment, the cells were fixed with 4% paraformaldehyde for 30 min at room temperature and permeabilized with 0.5% Triton X-100 in phosphatebuffered saline (PBS) for 10 min. After the cells had been blocked with 10% goat serum/5% bovine serum albumin in PBS for 1 h at room temperature, they were incubated with primary antibody overnight at 4° C., washed, and visualized with AlexaFluor594-conjugated or Cy-2-conjugated secondary antibodies. The cells were mounted using VECTASHIELD mounting medium containing […], 6-diamidino-2-phenylindole (Vector Laboratories), and images were taken by a Leica TCS SP2 AOBS laser confocal microscope equipped with a Chameleon Ti: Sapphire multiphoton laser. Optical sections were processed with LCSLite software.
To assess the role of nonmuscle myosin in collagen synthesis, we disrupted nonmuscle myosin filaments in two different cell types: primary human lung fibroblasts and primary scleroderma skin fibroblasts. These cells are responsible for lung and skin fibrosis. […]

[2] = tested on: lung fibroblasts; assay: Immunostaining for subcellular colocalization of collagen α1(I) and α2(I) polypeptides; format: cell-based, human; details: ML-7-treated vs control cells (high degree of colocalization)
Experimental: ML-7, blebbistatin, cytochalasin B, puromycin, and cycloheximide were purchased from Sigma. ML-7 was used at 40 μM, blebbistatin was used at 100 μM, and cytochalasin B was used at 20 μM. Cells were incubated with the drugs for 16 h before analysis. Puromycin (200 μg/ml) and cycloheximide (100 μg/ml) were added to the cells for 2 h. Human lung fibroblasts have been described previously.16 Scleroderma fibroblasts were purchased from the European Collection of Cell Cultures (cell line BM0070) and derived from the skin of a scleroderma patient. MEFs were derived from knock-in mice in which the 5′SL of the collagen α1(I) gene has been mutated (Parsons et al., submitted). Several independent cell isolates were used throughout the study. All cells were cultured in Dulbecco's modified Eagle's medium supplemented with 10% fetal bovine serum for up to 10 passages. […] [^32P]dCTP was included in the PCR step to label the products, which were resolved on sequencing gels, as described previously.^8,31,49,50 When RNA from polysomal fractions was analyzed, an equal aliquot of each fraction was used. […]
(§1) Protein concentration was estimated by the Bradford assay, with bovine serum albumin as standard.^51 Western blot analyses of cellular proteins were performed using 50 μg of protein. […] The medium was collected, and an aliquot was analyzed directly by Western blot analysis. […]

[3] = tested on: lung fibroblasts and scleroderma fibroblasts; assay: Intracellular collagen degradation with proteosome inhibitor epoxomycin, Western blot; format: cell-based, human
Excerpt: FIG. 3 Disruption of nonmuscle myosin by ML-7 results in secretion of homotrimeric type I collagen. (a) ML-7 disrupts nonmuscle myosin filaments. Immunostaining of nonmuscle myosin IIB in control lung fibroblasts (CON) and in lung fibroblasts treated with ML-7 (ML-7). […] Western blot analysis of control cells (lane 1) and cells treated with ML-7 (lane 2) using anti-myosin IIB antibody (MYO IIB). Fibronectin (FIB), loading control. (c) Effect of ML-7 on collagen secretion from lung fibroblasts. Western blot analysis of cellular proteins from control cells (lane 2) and ML-7-treated cells (lane 1), and of medium proteins from control cells (lane 4) and ML-7-treated cells (lane 3). COL1A1, collagen α1(I) polypeptide; COL1A2, collagen α2(I) polypeptide; FIB, fibronectin as loading control. […] The medium samples from (c) were analyzed under reducing conditions (lanes 1 and 2) and nonreducing conditions […] with antibody specific for collagen α1(I) polypeptide. […] Intracellular collagen was analyzed by Western blot analysis using antibodies against collagen α1(I) polypeptide (COL1A1) and α2(I) polypeptide (COL1A2). […]
as §1

O=S(=O)(c1cccc2c(I)cccc12)N1CCCNCC1 [ML-7]
secretion of collagen α1(I) polypeptide into the medium ([1]; cytochalasin B 20 μM): found in similar amounts
secretion of collagen α2(I) polypeptide into the medium ([1]; cytochalasin B 20 μM): secreted only in trace amounts
secretion/expression of fibronectin ([1]; cytochalasin B 20 μM): not affected
intracellular level of collagen α1(I) and α2(I) polypeptides [1]: not significantly affected
subcellular colocalization of α1(I) and α2(I) polypeptides [2]: a significant fraction of α2(I) polypeptide (red) was not colocalized with α1(I) polypeptide
intracellular level of both collagen polypeptides ([3]; ML-7 in combination with epoxomycin vs epoxomycin alone, lung and scleroderma fibroblasts): significantly increased
additional (degradation) product of approximately 120 kDa ([3]; epoxomycin and ML-7, not seen with epoxomycin alone): prominently seen
